Tests used:
[1] = target: human Farnesoid X receptor ligand-binding domain/Gal4 DNA binding domain chimera (Homo sapiens (Human), UniProt Q96RI1); assay: Cell-based assay of FXR activation (FXR-UAS-bla HEK 293T beta-lactamase reporter); details: cellular FXR beta-lactamase reporter assay; for Emax: HEK-293T, extent of activation relative to GW4064, read-out: % Efficacy; for EC50: FXR-UAS-bla HEK 293T cells, 16 h, pEC50 = -log EC50
Experimental: FXR activation was measured using a cell line and procedure obtained from Life Technologies (Cat # K1691). FXR-UAS-bla HEK 293T cells contain a human Farnesoid X receptor ligand-binding domain/Gal4 DNA binding domain chimera stably integrated into the CellSensor® UAS-bla HEK 293T cell line. The CellSensor® UAS-bla HEK 293T contains a beta-lactamase reporter gene under control of a UAS response element stably integrated into HEK 293T cells. Activation of FXR by bound ligands results in transcriptional activation of the beta-lactamase reporter gene, which is detected via assay of beta-lactamase activity.
Cells are harvested and diluted into assay medium containing phenol red-free DMEM supplemented with 2% Charcoal-stripped FBS, pyruvate, non-essential amino acids. Cells are then transferred to a 384 well assay plate. Test compounds are dissolved in DMSO and a 3-fold serial dilution series is generated, then further diluted into assay medium. Compounds in assay medium are added to cells in the 384 well plate and allowed to incubate 16 h at 37 C in the presence of 5% CO2.
A FRET-based […] is loaded into cells as its acetomethoxy ester. Intracellular esterases liberate free CCF4, a cephalosporin core linking 7-hydroxycoumarin to fluorescein. In the presence of beta-lactamase activity produced in the presence of FXR agonists, cleavage of CCF4 spatially separates the two dyes and disrupts FRET, so that exciting the coumarin at 409 nm now produces a blue fluorescence signal at 447 nm. The change in FRET signal is plotted against the test compound concentration and fit to a 3-parameter logistical equation. The concentration required to produce 50% activation is expressed as pEC50 (−log EC50), and the extent of activation is expressed relative to GW4064 as % activation.

[2] = target: ligand binding domain of human FXR (Homo sapiens (Human), UniProt Q96RI1); assay: FXR ligand binding assay (LanthaScreen TR-FRET, SRC2-2 peptide recruitment); details: for pEC50 / EC50: -log EC50, concentration required to produce 50% activation; for Emax: extent of activation relative to GW4064, read-out: % Efficacy
Chain of ligand binding domain of human FXR (Q96RI1 262-486): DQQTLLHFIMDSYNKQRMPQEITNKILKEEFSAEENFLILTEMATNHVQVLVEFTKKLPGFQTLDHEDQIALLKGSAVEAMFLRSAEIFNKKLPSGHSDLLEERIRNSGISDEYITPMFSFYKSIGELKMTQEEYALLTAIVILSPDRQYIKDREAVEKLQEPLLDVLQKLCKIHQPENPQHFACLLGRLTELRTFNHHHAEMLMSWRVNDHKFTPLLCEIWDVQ

Chain of human Farnesoid X receptor ligand-binding domain/Gal4 DNA binding domain chimera (Q96RI1 262-486, stated change not applied): as the sequence (Q96RI1 262-486) above
Chain of human Farnesoid X receptor ligand-binding domain/Gal4 DNA binding domain chimera (P04386 1-147 partner): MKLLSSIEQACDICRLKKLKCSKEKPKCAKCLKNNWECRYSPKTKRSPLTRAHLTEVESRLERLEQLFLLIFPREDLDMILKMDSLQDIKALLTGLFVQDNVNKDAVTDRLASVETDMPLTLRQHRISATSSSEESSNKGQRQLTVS

EC50 [2] | Structure (SMILES) | Emax [1] | EC50 [1] | pEC50 [2] | Emax [2]
– | Cc1cc(C(=O)O)cc2sc(N3C[C@@H]4C[C@H]3C[C@H]4OCc3c(-c4c(Cl)cccc4Cl)noc3C3CC3)nc12 [Compound I-13, 2-[(1S,4S,5R)-5-{[5-cyclopropyl-3-(2,6-dichlorophenyl)-1,2-oxazol-4-yl]methoxy}-2-azabicyclo[2.2.1]heptan-2-yl]-4-methyl-1,3-benzothiazole-6-carboxylic acid] | 116% | 0.158 nM | 8.6 | 174%
– | O=C(O)c1cc(C2CC2)c2nc(N3C[C@@H]4C[C@H]3C[C@H]4OCc3c(-c4c(Cl)cccc4Cl)noc3C3CC3)sc2c1 [Compound I-14, 4-cyclopropyl-2-[(1S,4S,5R)-5-{[5-cyclopropyl-3-(2,6-dichlorophenyl)-1,2-oxazol-4-yl]methoxy}-2-azabicyclo[2.2.1]heptan-2-yl]-1,3-benzothiazole-6-carboxylic acid] | 111% | 0.1 nM | 8.6 | 146%
– | O=C(O)c1cc(C(F)(F)F)c2nc(N3C[C@@H]4C[C@H]3C[C@H]4OCc3c(-c4c(Cl)cccc4Cl)noc3C3CC3)sc2c1 [Compound I-15, 2-[(1S,4S,5R)-5-{[5-cyclopropyl-3-(2,6-dichlorophenyl)-1,2-oxazol-4-yl]methoxy}-2-azabicyclo[2.2.1]heptan-2-yl]-4-(trifluoromethyl)-1,3-benzothiazole-6-carboxylic acid] | 104% | 0.251 nM | 7.8 | 150%
– | O=C(O)c1cc(OC(F)(F)F)c2nc(N3C[C@@H]4C[C@H]3C[C@H]4OCc3c(-c4c(Cl)cccc4Cl)noc3C3CC3)sc2c1 [Compound I-16] | 109% | 0.0398 nM | 8.8 | 174%
– | O=C(O)c1cc(OCC(F)(F)F)c2nc(N3C[C@@H]4C[C@H]3C[C@H]4OCc3c(-c4c(Cl)cccc4Cl)noc3C3CC3)sc2c1 [Compound I-17, 2-[(1S,4S,5R)-5-{[5-cyclopropyl-3-(2,6-dichlorophenyl)-1,2-oxazol-4-yl]methoxy}-2-azabicyclo[2.2.1]heptan-2-yl]-4-(2,2,2-trifluoroethoxy)-1,3-benzothiazole-6-carboxylic acid] | 102% | 0.1 nM | 8.2 | 162%
– | CCOc1cc(C(=O)O)cc2sc(N3C[C@@H]4C[C@H]3C[C@H]4OCc3c(-c4c(Cl)cccc4Cl)noc3C3CC3)nc12 [Compound I-18, 2-[(1S,4S,5R)-5-{[5-cyclopropyl-3-(2,6-dichlorophenyl)-1,2-oxazol-4-yl]methoxy}-2-azabicyclo[2.2.1]heptan-2-yl]-4-ethoxy-1,3-benzothiazole-6-carboxylic acid] | 109% | 0.1 nM | 8.8 | 135%
– | O=C(O)c1cc(F)c2nc(N3C[C@@H]4C[C@H]3C[C@H]4OCc3c(-c4ccccc4C(F)(F)F)noc3C3CC3)sc2c1 [Compound I-19, 2-[(1S,4S,5R)-5-([5-cyclopropyl-3-[2-(trifluoromethyl)phenyl]-1,2-oxazol-4-yl]methoxy)-2-azabicyclo[2.2.1]heptan-2-yl]-4-fluoro-1,3-benzothiazole-6-carboxylic Acid] | 114% | 2 nM | 8 | 178%
– | O=C(O)c1cc(OC(F)(F)F)c2nc(N3C[C@@H]4C[C@H]3C[C@H]4OCc3c(-c4ccccc4C(F)(F)F)noc3C3CC3)sc2c1 [Compound I-20, 2-[(1S,4S,5R)-5-({5-cyclopropyl-3-[2-(trifluoromethyl)phenyl]-1,2-oxazol-4-yl}methoxy)-2-azabicyclo[2.2.1]heptan-2-yl]-4-(trifluoromethoxy)-1,3-benzothiazole-6-carboxylic Acid] | 113% | 0.631 nM | 8.4 | 191%
100 nM | O=C(O)c1cc(F)c2nc(N3C[C@@H]4C[C@H]3C[C@H]4OCc3c(C4CCCCC4)noc3C3CC3)sc2c1 [Compound I-21, 2-[(1S,4S,5R)-5-[(3-cyclohexyl-5-cyclopropyl-1,2-oxazol-4-yl)methoxy]-2-azabicyclo[2.2.1]heptan-2-yl]-4-fluoro-1,3-benzothiazole-6-carboxylic Acid] | 110% | 79.4 nM | – | 123%
316 nM | O=C(O)c1cc(OC(F)(F)F)c2nc(N3C[C@@H]4C[C@H]3C[C@H]4OCc3c(C4CCCCC4)noc3C3CC3)sc2c1 [Compound I-22, 2-[(1S,4S,5R)-5-[(3-cyclohexyl-5-cyclopropyl-1,2-oxazol-4-yl)methoxy]-2-azabicyclo[2.2.1]heptan-2-yl]-4-(trifluoromethoxy)-1,3-benzothiazole-6-carboxylic Acid] | 113% | 126 nM | – | 85%
– | O=C(O)c1cc(OC(F)(F)F)c2nc(N3C[C@@H]4C[C@H]3C[C@H]4OCc3c(C4CCOCC4)noc3C3CC3)sc2c1 [Compound I-23, 2-[(1S,4S,5R)-5-{[5-cyclopropyl-3-(oxan-4-yl)-1,2-oxazol-4-yl]methoxy}-2-azabicyclo[2.2.1]heptan-2-yl]-4-(trifluoromethoxy)-1,3-benzothiazole-6-carboxylic Acid] | 100% | 631 nM | 5.5 | 85%
– | O=C(O)c1cc(F)c2nc(N3C[C@@H]4C[C@H]3C[C@H]4OCc3c(-c4c(Cl)cccc4Cl)noc3C3(F)CC3)sc2c1 [Compound I-24, 2-[(1S,4S,5R)-5-{[3-(2,6-dichlorophenyl)-5-(1-fluorocyclopropyl)-1,2-oxazol-4-yl]methoxy}-2-azabicyclo[2.2.1]heptan-2-yl]-4-fluoro-1,3-benzothiazole-6-carboxylic Acid] | 102% | 0.631 nM | 7.9 | 180%
– | O=C(O)c1cc(OC(F)(F)F)c2nc(N3C[C@@H]4C[C@H]3C[C@H]4OCc3c(-c4c(Cl)cccc4Cl)noc3C3(F)CC3)sc2c1 [Compound I-25, 2-[(1S,4S,5R)-5-{[3-(2,6-dichlorophenyl)-5-(1-fluorocyclopropyl)-1,2-oxazol-4-yl]methoxy}-2-azabicyclo[2.2.1]heptan-2-yl]-4-(trifluoromethoxy)-1,3-benzothiazole-6-carboxylic Acid] | 102% | 0.398 nM | 8.4 | 172%
– | Fc1cc(-c2nn[nH]n2)cc2sc(N3C[C@@H]4C[C@H]3C[C@H]4OCc3c(-c4c(Cl)cccc4Cl)noc3C3CC3)nc12 [Compound I-26, 2-[(1S,4S,5R)-5-{[5-cyclopropyl-3-(2,6-dichlorophenyl)-1,2-oxazol-4-yl]methoxy}-2-azabicyclo[2.2.1]heptan-2-yl]-4-fluoro-6-(2H-1,2,3,4-tetrazol-5-yl)-1,3-benzothiazole] | 106% | 25.1 nM | 8.4 | 137%
– | FC(F)(F)Oc1cc(-c2nn[nH]n2)cc2sc(N3C[C@@H]4C[C@H]3C[C@H]4OCc3c(-c4c(Cl)cccc4Cl)noc3C3CC3)nc12 [Compound I-27, 2-[(1S,4S,5R)-5-{[5-cyclopropyl-3-(2,6-dichlorophenyl)-1,2-oxazol-4-yl]methoxy}-2-azabicyclo[2.2.1]heptan-2-yl]-4-trifluoromethoxy-6-(2H-1,2,3,4-tetrazol-5-yl)-1,3-benzothiazole] | 94% | 2 nM | – | 130%
– | CS(=O)(=O)NC(=O)c1cc(F)c2nc(N3C[C@@H]4C[C@H]3C[C@H]4OCc3c(-c4c(Cl)cccc4Cl)noc3C3CC3)sc2c1 [Compound I-28, 2-[(1S,4S,5R)-5-{[5-cyclopropyl-3-(2,6-dichlorophenyl)-1,2-oxazol-4-yl]methoxy}-2-azabicyclo[2.2.1]heptan-2-yl]-4-fluoro-N-methanesulfonyl-1,3-benzothiazole-6-carboxamide] | 122% | 2 nM | 8.9 | 153%
– | CCCS(=O)(=O)NC(=O)c1cc(F)c2nc(N3C[C@@H]4C[C@H]3C[C@H]4OCc3c(-c4c(Cl)cccc4Cl)noc3C3CC3)sc2c1 [Compound I-29, 2-[(1S,4S,5R)-5-{[5-cyclopropyl-3-(2,6-dichlorophenyl)-1,2-oxazol-4-yl]methoxy}-2-azabicyclo[2.2.1]heptan-2-yl]-4-fluoro-N-(propane-1-sulfonyl)-1,3-benzothiazole-6-carboxamide] | 118% | 1.58 nM | 7.8 | 194%
